Experimental data as given in publication PMC6825211 (Nature Communications, 2019).
“And” between values parts separate entries of the source, which are not always exact repeats. Identical values can stand only once.

Legend:
[1] = test system: Raw264.7 cells; experiment: RT-PCR of LPS-induced TNFα, IL-1β, IL-6 expression; settings: 100 ng/mL LPS 4 h
Text: One microgram of cDNA of each treatment sample was synthesized by using SuperScript III First-Strand Synthesis (Invitrogen). Taqman mouse primers were purchased from ThermoFisher: TNFα (Catalog No. Mm00443258_m1), IL-6 (Catalog No. Mm00446190_m1), IL-1β (Catalog No. Mm00434228_m1), and GAPDH as endogenous housekeeping control (Catalog No. Mm99999915_g1). The qPCR reaction was set up for TNFα, IL-6, IL-1β, and GAPDH individually, with technical triplicates for each gene per treatment sample and performed by the Applied Biosystems ViiA 7 real-time PCR system. The ∆∆CT method was used to analyze the relative changes in gene expression.

[2] = target: TYK2 (Homo sapiens, UniProt P29597); experiment: Nanosyn kinase profiling, mobility shift assay; settings: read-out: % inhibition by neratinib
Chain of TYK2 (P29597 whole entry): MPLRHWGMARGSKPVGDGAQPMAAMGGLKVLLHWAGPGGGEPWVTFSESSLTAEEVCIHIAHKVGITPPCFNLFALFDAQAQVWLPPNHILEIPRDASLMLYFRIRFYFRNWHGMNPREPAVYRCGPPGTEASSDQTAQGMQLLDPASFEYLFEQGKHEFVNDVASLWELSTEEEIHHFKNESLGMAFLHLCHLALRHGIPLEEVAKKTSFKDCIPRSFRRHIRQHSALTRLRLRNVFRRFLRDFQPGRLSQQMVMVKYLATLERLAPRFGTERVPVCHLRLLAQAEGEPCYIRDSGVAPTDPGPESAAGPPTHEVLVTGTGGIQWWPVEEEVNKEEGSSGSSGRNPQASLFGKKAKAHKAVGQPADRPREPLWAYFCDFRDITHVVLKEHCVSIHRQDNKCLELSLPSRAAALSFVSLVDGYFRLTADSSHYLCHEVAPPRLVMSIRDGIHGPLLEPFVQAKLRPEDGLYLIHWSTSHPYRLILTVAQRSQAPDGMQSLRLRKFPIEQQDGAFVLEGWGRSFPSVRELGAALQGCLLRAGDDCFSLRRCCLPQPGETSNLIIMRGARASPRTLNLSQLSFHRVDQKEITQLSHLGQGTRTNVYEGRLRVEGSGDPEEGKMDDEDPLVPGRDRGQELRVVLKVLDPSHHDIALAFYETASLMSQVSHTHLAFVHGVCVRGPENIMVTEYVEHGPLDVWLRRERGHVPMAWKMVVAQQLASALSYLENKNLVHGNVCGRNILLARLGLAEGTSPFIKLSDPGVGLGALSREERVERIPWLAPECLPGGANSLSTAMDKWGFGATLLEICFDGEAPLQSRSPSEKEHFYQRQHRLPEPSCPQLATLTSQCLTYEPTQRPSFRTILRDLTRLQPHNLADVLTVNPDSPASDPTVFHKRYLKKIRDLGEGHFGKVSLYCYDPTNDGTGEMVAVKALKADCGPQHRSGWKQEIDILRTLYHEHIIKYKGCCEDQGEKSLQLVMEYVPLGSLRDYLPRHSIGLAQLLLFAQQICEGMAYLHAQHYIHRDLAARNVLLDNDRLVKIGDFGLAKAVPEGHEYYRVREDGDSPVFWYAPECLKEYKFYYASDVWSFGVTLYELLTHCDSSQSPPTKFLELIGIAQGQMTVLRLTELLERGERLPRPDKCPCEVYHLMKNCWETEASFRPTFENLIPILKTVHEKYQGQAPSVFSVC

[3] = target: PIM-1-KINASE (Homo sapiens, UniProt P11309); experiment: Nanosyn kinase profiling, mobility shift assay; settings: read-out: % inhibition by neratinib
Chain of PIM-1-KINASE (P11309 whole entry): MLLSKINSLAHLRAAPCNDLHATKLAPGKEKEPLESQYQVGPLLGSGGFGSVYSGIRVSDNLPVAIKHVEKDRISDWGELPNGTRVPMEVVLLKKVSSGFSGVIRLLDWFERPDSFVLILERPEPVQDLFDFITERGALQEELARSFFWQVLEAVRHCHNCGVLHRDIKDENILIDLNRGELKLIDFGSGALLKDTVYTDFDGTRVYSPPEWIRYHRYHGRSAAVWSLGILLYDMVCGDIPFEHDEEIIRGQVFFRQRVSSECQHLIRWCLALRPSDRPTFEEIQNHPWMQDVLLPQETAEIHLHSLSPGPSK

[4] = target: SGK1 (Homo sapiens, UniProt O00141); experiment: Nanosyn kinase profiling, mobility shift assay; settings: read-out: % inhibition by neratinib
Chain of SGK1 (O00141 whole entry): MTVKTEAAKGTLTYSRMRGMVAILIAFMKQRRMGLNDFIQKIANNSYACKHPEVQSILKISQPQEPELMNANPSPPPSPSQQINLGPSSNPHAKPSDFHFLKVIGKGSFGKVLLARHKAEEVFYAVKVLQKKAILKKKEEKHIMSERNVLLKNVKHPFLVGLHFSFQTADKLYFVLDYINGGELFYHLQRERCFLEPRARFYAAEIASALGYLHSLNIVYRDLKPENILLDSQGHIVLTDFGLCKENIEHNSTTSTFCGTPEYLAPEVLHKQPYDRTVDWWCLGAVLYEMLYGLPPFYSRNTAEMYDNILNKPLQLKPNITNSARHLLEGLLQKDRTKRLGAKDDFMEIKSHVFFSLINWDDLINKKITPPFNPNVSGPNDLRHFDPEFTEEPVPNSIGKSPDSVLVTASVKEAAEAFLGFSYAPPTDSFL

[5] = target: DYRK1A (Homo sapiens, UniProt Q13627); experiment: Nanosyn kinase profiling, mobility shift assay; settings: read-out: % inhibition by neratinib
[6] = target: DAPK1 (Homo sapiens, UniProt P53355); experiment: Nanosyn kinase profiling, mobility shift assay; settings: read-out: % inhibition by neratinib
[7] = test system: MST1–LATS2 signaling; experiment: LATS-BS in vitro luciferase assay (MST1/LATS2 overexpression); settings: for Firefly/Renilla x1000 (MEAN): L2/Mst1 overexpression + 10 μM compound
Text: Therefore a LATS-BS construct has been generated with fusion of YAP fragment and 14-3-3 with N-terminal and C-terminal firefly luciferase fragments (N-luc and C-luc), respectively that assesses LATS kinase activity by measuring the interaction between pS127-YAP and 14-3-3[35] in a MST1–LATS2-phosphorylation-dependent manner (Fig. 4a).
As internal transfection control, pRL-Renilla luciferase control reporter vector (Promega) was co-transfected into each sample. […] Luciferase signal was calculated based on the ratio of luciferase activity of LATS-BS to control reporter vector.

[8] = target: CAMK4 (Homo sapiens, UniProt Q16566); experiment: Nanosyn kinase profiling, mobility shift assay; settings: read-out: % inhibition by neratinib
[9] = target: AURORA-A (Homo sapiens, UniProt O14965); experiment: Nanosyn kinase profiling, mobility shift assay; settings: read-out: % inhibition by neratinib
Chain of AURORA-A (O14965 whole entry): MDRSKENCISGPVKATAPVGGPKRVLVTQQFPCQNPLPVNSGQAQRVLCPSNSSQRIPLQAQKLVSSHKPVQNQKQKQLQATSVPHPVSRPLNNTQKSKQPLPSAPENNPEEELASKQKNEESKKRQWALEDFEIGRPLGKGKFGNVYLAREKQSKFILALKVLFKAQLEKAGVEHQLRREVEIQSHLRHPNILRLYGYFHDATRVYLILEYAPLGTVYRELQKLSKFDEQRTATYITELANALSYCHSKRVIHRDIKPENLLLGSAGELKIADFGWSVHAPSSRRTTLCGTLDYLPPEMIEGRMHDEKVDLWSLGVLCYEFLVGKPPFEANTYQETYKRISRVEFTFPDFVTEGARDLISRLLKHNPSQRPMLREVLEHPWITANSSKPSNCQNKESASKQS

[10] = test system: obese diabetic Lepr db/db mice; experiment: db/db model: random fed blood glucose; type: in vivo, mouse; settings: for glycemia: dbdb mice
Text: Data are representative of six mice per group (n = 6 for (a–f)). g–j Mice were killed at day 31. g β-cell mass (given as percentage of the whole pancreatic section from ten sections spanning the width of the pancreas; n = 5 mice/group) and quantitative analyses from triple stainings for (h) TUNEL, (i) Ki67, (j) pHH3, and (k) nuclear PDX1 expression, insulin, and DAPI expressed as percentage of TUNEL-, Ki67-, pHH3-, or nuclear PDX1-positive β-cells ± SEM. An average number of 13667 (h), 5937 (i), 7108 (j), or 4330 (k) β-cells were counted from n = 3–5 (h, i, k) or n = 5–6 (j) mice/group.

[11] = target: T1, MST1 (Rattus norvegicus, UniProt A0A8I6A0F8); experiment: CETSA assay; type: cell-based; settings: 5 μM, 2 h, INS-1E, 55 °C
T1 construct: endogenous in cells; host or cells: INS-1E (rat beta-cell line)
T1 sequence (A0A8I6A0F8 1-487): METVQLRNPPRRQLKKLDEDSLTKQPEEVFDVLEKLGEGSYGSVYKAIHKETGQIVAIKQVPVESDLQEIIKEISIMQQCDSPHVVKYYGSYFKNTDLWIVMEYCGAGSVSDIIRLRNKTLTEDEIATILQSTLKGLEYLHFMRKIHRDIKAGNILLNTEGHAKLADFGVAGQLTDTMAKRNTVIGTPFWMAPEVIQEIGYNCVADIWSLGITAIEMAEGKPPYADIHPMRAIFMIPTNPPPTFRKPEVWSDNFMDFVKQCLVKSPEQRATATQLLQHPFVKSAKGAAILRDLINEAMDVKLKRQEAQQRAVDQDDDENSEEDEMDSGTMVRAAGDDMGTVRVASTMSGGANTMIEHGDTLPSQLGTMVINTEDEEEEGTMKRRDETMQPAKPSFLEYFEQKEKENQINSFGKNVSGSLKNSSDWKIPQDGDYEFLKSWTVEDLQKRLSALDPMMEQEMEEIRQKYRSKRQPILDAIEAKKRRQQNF
Experimental: Thereafter, cells were pelleted at 200 g for 4 min and resuspended in PBS supplemented with phosphatase and protease inhibitor cocktail at the cell density of 3 Mill./100 µl. Each cell suspension was distributed into five 0.2-ml PCR tubes with 100 µl of cell suspension per tube. PCR tubes were heated at their designated temperature (43–55 °C) on a thermal cycler for 3 min, incubated at room temperature for 3 min, and snap-frozen in liquid nitrogen. Cell lysates were prepared by freezing–thawing the samples in liquid nitrogen twice, and soluble MST1 was detected by western blot analysis.

[12] = target: MEK6 (Homo sapiens, UniProt P52564); experiment: Nanosyn kinase profiling, mobility shift assay; settings: read-out: % inhibition by neratinib
Chain of MEK6 (P52564 whole entry): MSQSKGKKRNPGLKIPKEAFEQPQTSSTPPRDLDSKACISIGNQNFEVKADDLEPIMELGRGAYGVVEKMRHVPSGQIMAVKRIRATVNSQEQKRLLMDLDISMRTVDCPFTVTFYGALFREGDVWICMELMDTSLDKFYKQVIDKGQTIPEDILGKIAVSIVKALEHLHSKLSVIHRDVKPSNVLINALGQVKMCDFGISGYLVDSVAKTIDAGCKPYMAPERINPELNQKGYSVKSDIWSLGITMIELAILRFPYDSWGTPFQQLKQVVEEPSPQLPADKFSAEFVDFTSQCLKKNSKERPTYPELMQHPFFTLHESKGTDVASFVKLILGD

[13] = target: CDK2 (Homo sapiens, UniProt P24941); experiment: Nanosyn kinase profiling, mobility shift assay; settings: read-out: % inhibition by neratinib
[14] = target: PAK2 (Homo sapiens, UniProt Q13177); experiment: biochemical; settings: read-out: % inhibition by neratinib
Chain of PAK2 (Q13177 whole entry, species assumed): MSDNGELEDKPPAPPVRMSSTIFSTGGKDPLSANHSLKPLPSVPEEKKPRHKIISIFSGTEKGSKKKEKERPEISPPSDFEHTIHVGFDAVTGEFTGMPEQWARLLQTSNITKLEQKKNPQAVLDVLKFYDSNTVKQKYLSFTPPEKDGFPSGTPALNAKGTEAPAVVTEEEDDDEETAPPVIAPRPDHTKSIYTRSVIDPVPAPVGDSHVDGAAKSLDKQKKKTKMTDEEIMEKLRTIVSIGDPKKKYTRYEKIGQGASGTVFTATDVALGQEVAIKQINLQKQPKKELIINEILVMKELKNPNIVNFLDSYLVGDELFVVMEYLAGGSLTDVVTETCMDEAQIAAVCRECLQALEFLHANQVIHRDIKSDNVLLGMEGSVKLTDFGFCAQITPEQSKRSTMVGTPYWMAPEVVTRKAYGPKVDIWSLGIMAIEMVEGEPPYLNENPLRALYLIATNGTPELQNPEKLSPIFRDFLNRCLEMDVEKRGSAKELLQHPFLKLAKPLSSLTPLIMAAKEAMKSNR

[15] = test system: human islets; experiment: β-cell apoptosis (TUNEL/insulin) under diabetogenic conditions; type: cell-based; settings: for mean TUNEL/isolation/%: 72 h
Experimental: . pThr183), caspase-3 cleavage, and GAPDH or actin were analyzed by western blotting. […] Scale bar, 100 μm. […]; all by Student’s t tests.
Human islets were isolated from eight pancreases of nondiabetic organ donors at PRODO Labs and at Lille University and cultured on extracellular matrix-coated dishes (Novamed, Jerusalem, Israel)[62] or on Biocoat Collagen I coated dishes (#356400, Corning, ME, USA). […] The clonal rat β-cell line INS-1E was kindly provided by Dr. Claes Wollheim, Geneva & Lund University. Human islets were cultured in complete CMRL-1066 (Invitrogen) medium at 5.5 mM glucose, mouse islets and INS-1E cells at complete RPMI-1640 medium at 11.1 mM glucose. […] . Palmitic acid (Sigma) was dissolved at 10 mmol/l in RPMI-1640 medium containing 11% fatty acid–free bovine serum albumin (BSA) (Sigma) under an N2-atmosphere and added to the culture at 0.5 mM[64]. […] . Isolated human islets or INS-1E cells were infected with adenovirus carrying LacZ as control or MST1 or LATS2 (all Vector Biolabs), at a multiplicity of infection of 100 (human islets) or 20 (INS-1E) for 4 h[11]. Adenovirus was subsequently washed off with PBS and replaced by fresh medium with 10% FBS and the respective analysis performed after 48 h post infection.
Mouse pancreases were dissected and fixed in 4% formaldehyde at 4 °C for 12 h before embedding in paraffin[62]. Two-four-micrometer sections were deparaffinized, rehydrated, and incubated overnight at 4 °C with anti-PDX-1 (Abcam; #47267), anti-Glut2 (Chemicon; #07-1402), anti-Ki67 (Dako; #M7249), anti-phospho-Histone H3 (Ser10; Merck #06-570), and anti-NKX6.1 (DSHB, University of Iowa #F55A12[66]) in combination with TSA (Invitrogen #T30955), or for 2 h at room temperature with anti-insulin (Dako; A0546) antibodies (all at a dilution of 1:100, except anti-PDX-1, which was diluted 1:400) followed by fluorescein isothiocyanate (FITC)- or Cy3-conjugated secondary antibodies (Jackson ImmunoResearch Laboratories, West Grove, PA). Slides were mounted with Vectashield with 4′6-diamidino-2-phenylindole (DAPI) (Vector Labs). β-cell apoptosis was analyzed by the terminal deoxynucleotidyl transferase-mediated dUTP nick-end labeling (TUNEL) technique according to the manufacturer’s instructions (In Situ Cell Death Detection Kit, TMR red; Roche) and double stained for insulin. Fluorescence was analyzed by using a Nikon MEA53200 (Nikon GmbH, Dusseldorf, Germany) microscope, and images were acquired by using NIS-Elements software (Nikon).

[16] = target: CHEK1 (Homo sapiens, UniProt O14757); experiment: Nanosyn kinase profiling, mobility shift assay; settings: read-out: % inhibition by neratinib
Chain of CHEK1 (O14757 whole entry): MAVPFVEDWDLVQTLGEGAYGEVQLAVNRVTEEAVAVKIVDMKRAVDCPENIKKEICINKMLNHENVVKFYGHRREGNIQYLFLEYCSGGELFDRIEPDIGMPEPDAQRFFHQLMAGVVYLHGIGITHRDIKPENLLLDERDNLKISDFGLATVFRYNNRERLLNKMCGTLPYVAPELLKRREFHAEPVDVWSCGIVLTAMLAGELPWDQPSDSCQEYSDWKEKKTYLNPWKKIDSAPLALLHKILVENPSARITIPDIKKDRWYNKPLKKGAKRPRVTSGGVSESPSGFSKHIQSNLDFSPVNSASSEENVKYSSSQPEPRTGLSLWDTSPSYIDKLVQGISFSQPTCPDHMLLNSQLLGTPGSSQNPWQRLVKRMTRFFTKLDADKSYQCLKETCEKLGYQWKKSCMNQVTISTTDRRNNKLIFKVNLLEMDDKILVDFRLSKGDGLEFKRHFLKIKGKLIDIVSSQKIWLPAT

[17] = target: PKC-ALPHA (Homo sapiens, UniProt P17252); experiment: Nanosyn kinase profiling, mobility shift assay; settings: read-out: % inhibition by neratinib

In the case of CCOc1cc2ncc(C#N)c(Nc3ccc(OCc4ccccn4)c(Cl)c3)c2cc1NC(=O)/C=C/CN(C)C [neratinib], the “LPS-induced expression of TNFα, IL-1β, and IL-6” value [1] is reported as “largely inhibited”, the inhibition at 10 µM [2] is reported as 15% and the inhibition at 10 µM [3] is reported as 13%. For the same compound, the inhibition at 10 µM [4] was 28%, the inhibition at 10 µM [5] was 3% and the inhibition at 10 µM [6] was 4%. For the same compound, the “MST1/LATS2-induced luciferase activity (LATS-BS)” value ([7]; 10 μM, last 24 h) was “strongly inhibited”, the “Firefly/Renilla x1000 (MEAN)” value ([7]; mean of six dishes) was 10.9109 and the “Firefly/Renilla x1000 (MEAN)” value ([7]; single culture dishes) was 12.1618. The inhibition at 10 µM [8] was 19%, the inhibition at 10 µM [9] was 28% and the “blood glucose, start to after 30 days of therapy” value ([10]; db/db neratinib group, no significant increase) was 312 to 384 mg/dL. The “blood glucose levels after 4 weeks” value ([10]; db/db, 5 mg/kg i.p. daily) was “did not significantly increase”, the glycemia ([10]; 0 days after NERA injection, MEAN) was 311.667 mg/dL and the glycemia ([10]; 0 days after NERA injection, individual mice) was 219 mg/dL and 243 mg/dL and 260 mg/dL and 443 mg/dL and 266 mg/dL and 439 mg/dL. For the same compound, the glycemia ([10]; 31 days after NERA injection, individual mice) was 405 mg/dL and 313 mg/dL and 425 mg/dL and 317 mg/dL and 380 mg/dL and 462 mg/dL, the “thermal stabilization of MST1 in intact cells” value [11] was “MST1 stabilization at 55 °C” and the inhibition at 10 µM [12] was 9%. The inhibition at 10 µM [13] was 9%, the inhibition at 10 µM [14] was 101% and the “toxicity at basal control levels” value ([15]; 25 µM neratinib, human islets) was “did not result in any detectable toxicity”. For the same compound, the “mean TUNEL/isolation/%” value ([15]; HG/Pal + NERA, mean of isolations, untreated = 100) was 180.73%, the “mean TUNEL/isolation/%” value ([15]; HG/Pal + NERA, single islet isolations, untreated mean = 100) was 224.286% and 136.508% and 181.395% and the “mean TUNEL/isolation/%” value ([15]; ILIF + NERA, mean of isolations, untreated = 100) was 205.757%. For the same compound, the inhibition at 10 µM [16] was 27% and the inhibition at 10 µM [17] was 7%.
